Values joined by “and” are separate entries in the source; they are usually repeats but may differ in a detail not shown here. Equal values may be shown once.
Test: molar heat capacity at constant pressure
Conditions: 101.33 kPa, Crystal, Small sample (50 mg) DSC

[Pb].[Pb].[Pb].[U] [uranium trilead]
Conditions	molar heat capacity at constant pressure
316.34 K	102.56 J/K/mol and 102.48 J/K/mol
326.01 K	102.76 J/K/mol and 102.64 J/K/mol
336.81 K	102.96 J/K/mol and 102.76 J/K/mol
346.52 K	102.92 J/K/mol and 103.16 J/K/mol
356.26 K	103 J/K/mol and 103.32 J/K/mol
366.02 K	103.12 J/K/mol and 103.44 J/K/mol
375.81 K	103.24 J/K/mol and 103.6 J/K/mol
385.63 K	103.36 J/K/mol and 103.72 J/K/mol
395.49 K	103.44 J/K/mol and 103.88 J/K/mol
405.37 K	103.52 J/K/mol and 104 J/K/mol
415.29 K	104.12 J/K/mol and 103.64 J/K/mol
425.25 K	104.24 J/K/mol and 103.72 J/K/mol
435.23 K	104.32 J/K/mol and 103.8 J/K/mol
445.22 K	104.44 J/K/mol and 103.88 J/K/mol
455.21 K	104.56 J/K/mol and 103.96 J/K/mol
465.2 K	104.64 J/K/mol and 104 J/K/mol
475.19 K	104.72 J/K/mol and 104.08 J/K/mol
485.18 K	104.8 J/K/mol and 104.16 J/K/mol
495.17 K	104.92 J/K/mol and 104.2 J/K/mol
505.15 K	105 J/K/mol and 104.28 J/K/mol
515.13 K	105.08 J/K/mol and 104.32 J/K/mol
525.11 K	105.12 J/K/mol and 104.4 J/K/mol
535.04 K	105.2 J/K/mol and 104.44 J/K/mol
544.83 K	105.28 J/K/mol and 104.48 J/K/mol
554.76 K	105.36 J/K/mol and 104.52 J/K/mol
564.58 K	105.4 J/K/mol and 104.56 J/K/mol
574.42 K	105.48 J/K/mol and 104.64 J/K/mol
584.3 K	105.52 J/K/mol and 104.68 J/K/mol
594.25 K	105.6 J/K/mol and 104.72 J/K/mol
604.13 K	105.64 J/K/mol and 104.76 J/K/mol

— the NIST ThermoML archive (doi:10.1016/j.tca.2016.05.012)
